This assay deals with HCV replicon (Renilla luciferase) in HUH-7 cells. As to the kind of experiment: HCV replicon luciferase reporter assay. It is filed as cell-based, HCV strain 1b. An excerpt: An HCV replicon whole cell system was established as described by Lohmann V, Korner F, Koch J, Herian U, Theilmann L, Bartenschlager R., Science 285(5424):110-3 (1999). This system enabled us to evaluate the effects of our HCV Protease compounds on HCV RNA replication. Briefly, using the HCV strain 1b sequence described in the Lohmann paper (Assession number:AJ238799), an HCV cDNA was synthesized by Operon Technologies, Inc. (Alameda, Calif.), and the full-length replicon was then assembled in plasmid pGem9zf(+) (Promega, Madison, Wis.) using standard molecular biology techniques. […]
As a secondary assay, EC50 determinations from the replicon FRET assay were confirmed in a replicon luciferase reporter assay. […] Following 4 days in a 37° C./5% CO2 incubator, cells were analyzed for Renilla Luciferase activity using the Promega Dual-Glo Luciferase Assay System. […] Plates were read on a Packard TopCount NXT using a luminescence program. The percentage inhibition was calculated using the formula below: % control=average luciferase signal in experimental wells (+compound) average luciferase signal in DMSO control wells (−compound)
The values were graphed and analyzed using XLfit to obtain the EC50 value.
On the technique in general: Replicon systems follow genome replication, usually without infectious particles.

Molecules are shown by their SMILES.

By EC50 is commonly meant the concentration giving half of the maximal effect. Read a low EC50 as a more potent agent. Take `C=C[C@@H]1C[C@]1(NC(=O)[C@@H]1C[C@@H](Oc2ncc(OC)c3ccc(Cl)cc23)CN1C(=O)[C@@H](Nc1nc(-c2cccc(OC(F)(F)F)c2)cs1)C(C)(C)C)C(=O)NS(=O)(=O)C1CC1` [Example 68]: the EC50 was determined as 2 nM.

The values are drawn from patent publication US8163921B2, “Hepatitis C virus inhibitors” (Bristol-Myers Squibb Company, priority 2008, dated 2012).
